Structures can show the parent of a compound that is named as a salt. Where two headings read alike, the source gives them in different places. A value given as a limit tells only on which side of the number the result lay.

Holding throughout (type): biochemical
The target of assay [1] is T1, recombinant human DAO (diamine oxidase) (Homo sapiens, UniProt P19801).
T1 construct: purchased R&D systems
T1 sequence (P19801 20-751): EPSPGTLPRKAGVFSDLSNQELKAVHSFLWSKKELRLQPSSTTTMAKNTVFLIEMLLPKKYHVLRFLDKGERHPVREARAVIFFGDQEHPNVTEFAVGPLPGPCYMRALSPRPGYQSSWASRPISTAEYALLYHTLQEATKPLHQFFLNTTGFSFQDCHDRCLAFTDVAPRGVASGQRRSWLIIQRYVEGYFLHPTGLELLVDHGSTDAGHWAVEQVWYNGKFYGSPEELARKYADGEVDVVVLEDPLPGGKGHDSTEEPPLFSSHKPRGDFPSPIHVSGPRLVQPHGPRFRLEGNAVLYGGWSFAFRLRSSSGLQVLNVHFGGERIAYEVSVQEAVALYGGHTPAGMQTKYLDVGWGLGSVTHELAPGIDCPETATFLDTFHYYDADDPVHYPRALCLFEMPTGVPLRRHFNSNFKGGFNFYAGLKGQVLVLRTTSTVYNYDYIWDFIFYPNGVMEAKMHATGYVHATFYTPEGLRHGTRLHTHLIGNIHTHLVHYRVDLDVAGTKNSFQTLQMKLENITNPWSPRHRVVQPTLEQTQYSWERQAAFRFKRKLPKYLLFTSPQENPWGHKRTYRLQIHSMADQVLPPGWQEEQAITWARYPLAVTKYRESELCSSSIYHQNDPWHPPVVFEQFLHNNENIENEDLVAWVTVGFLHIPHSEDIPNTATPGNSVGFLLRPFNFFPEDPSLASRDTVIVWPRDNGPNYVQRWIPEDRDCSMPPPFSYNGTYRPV
The assay is described as follows: Activity evaluation on recombinant human DAO (Amplex Red/HRP-coupled assay, 1 mM putrescine substrate). The note with it: read-out: Inhibitory Activity (IC50, nM) DAO. An outline of the steps: (§1)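 Enzyme was preincubated with compounds (8-point 1:3 series, final DMSO <1%) 30 min at 37 °C in 50 mM sodium phosphate pH 7.4, then given 200 uM Amplex Red and 1 U/mL HRP with substrate. H2O2-derived resorufin fluorescence (ex 544/em 590 nm) was followed over 1–2 h; IC50 came from 4-parameter logistic fits of signal-rate inhibition versus DMSO control.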

The target in the next assay is T2, recombinant human VAP-1 (Homo sapiens, UniProt Q16853).
T2 construct: purchased R&D systems
T2 sequence (Q16853 1-763): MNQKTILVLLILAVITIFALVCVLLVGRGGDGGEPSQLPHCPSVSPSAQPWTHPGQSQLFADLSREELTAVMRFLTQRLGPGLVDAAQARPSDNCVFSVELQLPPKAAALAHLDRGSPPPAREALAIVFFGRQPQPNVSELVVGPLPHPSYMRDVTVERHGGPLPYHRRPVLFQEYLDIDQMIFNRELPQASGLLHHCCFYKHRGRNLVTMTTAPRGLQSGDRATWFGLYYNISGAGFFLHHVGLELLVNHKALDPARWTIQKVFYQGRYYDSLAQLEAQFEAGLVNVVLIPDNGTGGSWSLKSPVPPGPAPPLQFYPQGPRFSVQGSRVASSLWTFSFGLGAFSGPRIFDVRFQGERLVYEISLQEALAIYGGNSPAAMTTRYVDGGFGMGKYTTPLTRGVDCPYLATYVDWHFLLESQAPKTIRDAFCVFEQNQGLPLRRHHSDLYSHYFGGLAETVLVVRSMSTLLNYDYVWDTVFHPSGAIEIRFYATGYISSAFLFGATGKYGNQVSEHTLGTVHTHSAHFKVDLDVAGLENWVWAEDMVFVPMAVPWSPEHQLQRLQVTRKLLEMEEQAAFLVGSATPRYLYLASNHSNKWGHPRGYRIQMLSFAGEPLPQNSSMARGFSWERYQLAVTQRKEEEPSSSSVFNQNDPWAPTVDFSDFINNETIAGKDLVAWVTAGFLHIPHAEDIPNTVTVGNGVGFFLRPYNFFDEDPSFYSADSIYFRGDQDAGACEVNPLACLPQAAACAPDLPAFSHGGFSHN
Kind of assay: Activity evaluation on recombinant human VAP-1 (Amplex Red/HRP-coupled hydrogen peroxide assay, benzylamine substrate). The following applies: read-out: Inhibitory Activity (IC50, nM) human VAP-1. In a few lines: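 Recombinant human VAP-1 in 50 mM sodium phosphate pH 7.4 preincubated 30 min at 37 °C with compound (8-point 1:3 series, <1% DMSO), then 1 mM benzylamine, 200 uM Amplex Red, 1 U/mL HRP added. H2O2-derived resorufin fluorescence (ex 544/em 590) followed 1–2 h; IC50 from four-parameter fit of rate inhibition.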

Assay [2] has as its target T3, recombinant human MAO-A (monoamine oxidase-A) (Homo sapiens, UniProt P21397).
T3 construct: purchased Sigma-Aldrich
T3 sequence (P21397 1-527): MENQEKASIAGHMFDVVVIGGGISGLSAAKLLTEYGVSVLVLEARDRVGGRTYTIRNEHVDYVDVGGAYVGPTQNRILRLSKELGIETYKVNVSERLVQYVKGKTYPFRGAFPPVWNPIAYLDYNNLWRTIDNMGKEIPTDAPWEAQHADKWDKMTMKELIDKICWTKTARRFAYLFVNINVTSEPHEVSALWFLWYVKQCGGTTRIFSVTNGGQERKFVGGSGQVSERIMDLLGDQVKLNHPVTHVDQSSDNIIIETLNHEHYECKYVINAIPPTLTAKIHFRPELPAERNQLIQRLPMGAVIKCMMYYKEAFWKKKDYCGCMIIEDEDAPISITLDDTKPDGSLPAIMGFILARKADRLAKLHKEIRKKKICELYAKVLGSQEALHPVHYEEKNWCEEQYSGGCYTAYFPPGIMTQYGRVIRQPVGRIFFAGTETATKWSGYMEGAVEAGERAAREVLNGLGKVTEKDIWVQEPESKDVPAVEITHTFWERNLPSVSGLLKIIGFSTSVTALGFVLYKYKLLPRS
Kind of assay: Activity evaluation on recombinant human MAO-A (Amplex Red/HRP-coupled assay, 0.5 mM tyramine substrate). The note with it: read-out: Inhibitory Activity (IC50, nM) MAO-A. An outline of the steps: as §1

Assay [3] addresses T4, recombinant human MAO-B (monoamine oxidase-B) (Homo sapiens, UniProt P27338).
T4 construct: purchased Sigma-Aldrich
T4 sequence (P27338 1-520): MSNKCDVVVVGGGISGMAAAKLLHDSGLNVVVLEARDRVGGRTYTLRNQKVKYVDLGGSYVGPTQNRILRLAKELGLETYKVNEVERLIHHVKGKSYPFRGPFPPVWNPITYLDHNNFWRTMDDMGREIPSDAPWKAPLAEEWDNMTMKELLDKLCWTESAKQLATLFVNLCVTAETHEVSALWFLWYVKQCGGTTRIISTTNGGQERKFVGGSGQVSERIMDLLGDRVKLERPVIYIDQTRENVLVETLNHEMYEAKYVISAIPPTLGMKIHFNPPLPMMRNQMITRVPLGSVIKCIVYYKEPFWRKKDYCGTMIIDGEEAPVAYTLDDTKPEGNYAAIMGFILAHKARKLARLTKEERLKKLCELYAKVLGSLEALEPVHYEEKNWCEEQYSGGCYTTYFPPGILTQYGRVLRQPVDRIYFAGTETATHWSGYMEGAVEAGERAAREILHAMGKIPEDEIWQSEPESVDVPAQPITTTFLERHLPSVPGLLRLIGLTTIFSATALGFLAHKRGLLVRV
Kind of assay: Activity evaluation on recombinant human MAO-B (Amplex Red/HRP-coupled assay, 1 mM benzylamine substrate). The following applies: read-out: Inhibitory Activity (IC50, nM) MAO-B. An outline of the steps:
as §1

Where [4] appears, read: recombinant human VAP-1, 30 min preincubation at 37° C., 1 mM benzylamine.
The mark [5] stands for this setting: recombinant human VAP-1, benzylamine substrate.

With `Cc1cc(-c2ccnc(-n3cnn(CC(CN)=C(F)F)c3=O)c2)cc2c1NC(=O)CC2` [Example 59, 6-[2-[1-[2-(aminomethyl)-3,3-difluoro-allyl]-5-oxo-1,2,4-triazol-4-yl]-4-pyridyl]-8-methyl-3,4-dihydro-1H-quinolin-2-one Trifluoroacetate], the IC50 was 84 nM in assay [1] (1 mM putrescine), 0.5 nM on recombinant human VAP-1 (setting [4]), over 100000 nM in assay [2] (0.5 mM tyramine) and over 100000 nM in assay [3] (1 mM benzylamine).
For `CCn1cc(-c2cc(-n3cnn(CC(CN)=C(F)F)c3=O)ccn2)cn1` [Example 67, 2-[2-(aminomethyl)-3,3-difluoro-allyl]-4-[2-(1-ethylpyrazol-4-yl)-4-pyridyl]-1,2,4-triazol-3-one Trifluoroacetate], the IC50 in assay [1] (1 mM putrescine) was 490 nM; on recombinant human VAP-1 (setting [4]) it was 0.9 nM; in assay [2] (0.5 mM tyramine) it was over 100000 nM; in assay [3] (1 mM benzylamine) it was 8300 nM.
Taken in the same sequence, the figures for `NCC(Cn1ncn(Cc2ccc(C#Cc3ccc(N4CCOCC4)nc3)s2)c1=O)=C(F)F` [Example 163, 2-[2-(aminomethyl)-3,3-difluoro-allyl]-4-[[5-[2-(6-morpholino-3-pyridyl)ethynyl]-2-thienyl]methyl]-1,2,4-triazol-3-one Trifluoroacetate] were 8400 nM, 0.4 nM, over 100000 nM and 31000 nM.
Consider `Cc1cc(C#Cc2ccc(N3CCOCC3)nc2)cnc1-n1cnn(CC(CN)=C(F)F)c1=O` [Example 242, 2-[2-(aminomethyl)-3,3-difluoro-allyl]-4-[3-methyl-5-[2-(6-morpholino-3-pyridyl)ethynyl]-2-pyridyl]-1,2,4-triazol-3-one Trifluoroacetate], for which the IC50 in assay [1] (1 mM putrescine substrate) was 4200 nM; at recombinant human VAP-1 (setting [5]), 1 nM; in assay [2] (0.5 mM tyramine substrate), over 100000 nM; in assay [3] (1 mM benzylamine substrate), 29000 nM.
Turning to `NCC(Cn1ncn(-c2cccc(-c3ccc(N4CCOCC4)nc3)n2)c1=O)=C(F)F` [Example 215, 2-[2-(aminomethyl)-3,3-difluoro-allyl]-4-[6-(6-morpholino-3-pyridyl)-2-pyridyl]-1,2,4-triazol-3-one Trifluoroacetate], the 50% inhibitory concentration (IC50) in assay [1] (1 mM putrescine substrate) is 280 nM; at recombinant human VAP-1 (setting [5]), 0.7 nM; in assay [2] (0.5 mM tyramine substrate), over 100000 nM; in assay [3] (1 mM benzylamine substrate) it was over 100000 nM.
In the case of `Cn1cc(-c2ccc(Cn3cnn(CC(CN)=C(F)F)c3=O)s2)cn1` [Example 296, 2-[2-(aminomethyl)-3,3-difluoro-allyl]-4-[[5-(1-methylpyrazol-4-yl)-2-thienyl]methyl]-1,2,4-triazol-3-one Trifluoroacetate], the concentration for half-maximal inhibition (IC50) was over 100000 nM in assay [1] (1 mM putrescine substrate), 1 nM at recombinant human VAP-1 (setting [5]), over 100000 nM in assay [2] (0.5 mM tyramine substrate) and over 100000 nM in assay [3] (1 mM benzylamine substrate).
With `NCC(Cn1ncn(Cc2cc3ccc(-c4ccc5c(c4)OCO5)cc3s2)c1=O)=C(F)F` [Example 201, 2-[2-(aminomethyl)-3,3-difluoro-allyl]-4-[[6-(1,3-benzodioxol-5-yl)benzothiophen-2-yl]methyl]-1,2,4-triazol-3-one Trifluoroacetate], the IC50 in assay [1] (1 mM putrescine substrate) came out at 27000 nM; at recombinant human VAP-1 (setting [5]), 2.8 nM; in assay [2] (0.5 mM tyramine substrate), 90800 nM; in assay [3] (1 mM benzylamine substrate), 2000 nM.
For the compound `Cc1cc(-c2ccc(N(C)C)nc2)sc1Cn1cnn(CC(CN)=C(F)F)c1=O` [Example 157, 2-[2-(aminomethyl)-3,3-difluoro-allyl]-4-[[5-[6-(dimethylamino)-3-pyridyl]-3-methyl-2-thienyl]methyl]-1,2,4-triazol-3-one Trifluoroacetate], the IC50 in assay [1] (1 mM putrescine) was over 100000 nM; at recombinant human VAP-1 (setting [4]), 2.3 nM; in assay [2] (0.5 mM tyramine), over 100000 nM; in assay [3] (1 mM benzylamine) it was over 100000 nM.
On to `NCC(Cn1ncn(-c2cccc(Br)c2)c1=O)=C(F)F` [Example 2, 2-[2-(aminomethyl)-3,3-difluoro-allyl]-4-(3-bromophenyl)-1,2,4-triazol-3-one Trifluoroacetate], for which the IC50 in assay [1] (1 mM putrescine) was 46000 nM; at recombinant human VAP-1 (setting [4]), 6.2 nM; in assay [2] (0.5 mM tyramine) it was over 100000 nM; in assay [3] (1 mM benzylamine), over 100000 nM.

(Values after patent publication US11168073B2, “3,3-difluoroallylamines or salts thereof and pharmaceutical compositions comprising the same” (YUHAN CORPORATION, priority 2018, dated 2021).)
